test system: leukemic cells; experiment: Trypan blue exclusion in combination with MTT activity; assay type: cell-based, human; details: in words
Procedure: (§1) Adherent cells were seeded at 67×10^3 cells/mL in a 96 well plate (Falcon, Mississauga, Ontario) the day prior to exposure to compound. Suspension cells were seeded at 27×10^4 cells/mL in a 96 well plate the day of exposure to compound. Mononucleated, T-cell depleted normal bone marrow cells were seeded at 67×10^4 cells/mL in a 96 well plate the day of exposure to compound. Compounds and solvent control were added to cells and assayed in triplicate or sextuplet. Following 48 h of incubation at 37° C. with 5% CO2, 40 μL of a 5 mg/mL solution of 3-[4,5-dimethylthiazol-2-yl]-2,5-diphenyltetrazolium bromide (MTT) substrate (Sigma) in Dulbecco's phosphate-buffered saline (D-PBS) was added. After 4 h of incubation at 37° C. with 5% CO2, the resulting violet formazan precipitate was solubilized by the addition of 80 μL of a 0.01 M HCI, 10% sodium dodecyl sulfate (SDS; Sigma) solution overnight at 37° C. with 5% CO2. The plates were then analyzed using the BioRad Benchmark Microplate Reader (BioRad Laboratories, Hercules, Calif.) at 570 nm to determine the optical density of the samples. MTT data was analyzed using Prism 3.0 (GraphPad Software, Inc., San Diego, Calif.) by the Chou-Talalay method. MTT graphs shown are a representative experiment.
Leukemic cells were seeded in a 24-well plate (Nunc, Naperville, Ill.) at 25×10^4 cells/mL. Cells were then exposed in triplicate to solvent control or the approximate MTT50 concentration of compounds B, C, F, G or H at 10 μg/mL, or I at 5 μg/mL. The final solvent volume was 2.4 μL/mL of media for trypan blue exclusion assay. The compound was replenished after 48 h of treatment. Cell counts were evaluated using a 1:1 dilution of cell suspension in trypan blue (Gibco-BRL, Mississauga, Ontario, Canada). Viable and nonviable cells were counted using a hemocytometer. Cells which excluded trypan blue were counted as viable whereas stained cells were counted as nonviable. Trypan blue exclusion graphs shown are a representative experiment.
Leukemic cells were seeded in a 24-well plate (Nunc, Naperville, Ill.) at 25×10^4 cells/mL. Cells were then exposed in triplicate to solvent control or the approximate MTT50 concentration of compounds F (10 μg/mL), G (10 μg/mL) or 1 (5 μg/mL). The final solvent volume was 2.4 μL/mL of media for trypan blue exclusion assay. The compound was replenished after 48 h of treatment. Cell counts were evaluated using a 1:1 dilution of cell suspension in trypan blue (Gibco-BRL, Mississauga, Ontario, Canada). Viable and nonviable cells were counted using a hemocytometer. Cells which excluded trypan blue were counted as viable whereas stained cells were counted as nonviable. Trypan blue exclusion graphs shown are a representative experiment.

Row | Compound | Cytotoxicity to the leukemic cells (trypan blue exclusion with MTT activity)
1 | c1ccc(SSc2ccccc2)cc1 [D, diphenyl disulphide] | cytotoxic to the leukemic cells in a dose-dependent manner
2 | CS(=O)(=O)CSSc1ccccc1 [E, 5-phenyl-2,4,5-trithiapentane 2,2-dioxide] | cytotoxic to the leukemic cells in a dose-dependent manner
3 | COC(=O)CSSC [H, methyl 3,4-dithiopentanoate] | cytotoxic to the leukemic cells in a dose-dependent manner
4 | CSSCS(=O)(=O)c1ccc(C)cc1 [Compound C, α-p-toluenesulfonyl dimethyl disulphide] | cytotoxic to the leukemic cells in a dose-dependent manner
5 | CSSCOC(C)=O [I, 2,3-dithiabutyl acetate] | cytotoxic to the leukemic cells in a dose-dependent manner
6 | CSSCCS(C)(=O)=O [F, 2,3,6-trithiaheptane 6,6,-dioxide] | cytotoxic to the leukemic cells in a dose-dependent manner

test system: B1 leukemic cell line; experiment: MTT assay; assay type: cell-based, human; details: B1; 48 h; read-out: MTT50
Procedure: All cell lines were assayed as asynchronously growing cells. Leukemic cell lines, OCI-AML-2, OCI-AML-3 (referred to hereafter as AML-2 and AML-3, respectively), NB-4, KK, B1, G2, and W1 were cultured in alpha-minimal essential medium (α-MEM) (Princess Margaret Hospital Media Services) supplemented with 10% fetal bovine serum (FBS) (Sigma, St. Louis, Mo.). Non-transformed, diploid fibroblast lines WI38 and IMR90, were cultured in α-MEM and MEM F-15, respectively supplemented with 10% FBS. Media for IMR90 cells was also supplemented with 1.5 g/L bicarbonate and 1 mM pyruvate. Breast tumour cell lines, MDA-231, SK-BR-3, MCF-7, ZR-751, and melanoma tumour cell lines, WM9, WM983, WM793, 1232, were grown in α-MEM supplemented with 10% fetal bovine serum. Prostate tumour cell lines, DU145 and PC-3, were grown in RPMI 1640 media supplemented with 10% FBS. All cell lines were cultured in the presence of penicillin/streptomycin. Mononucleated cells were isolated from normal bone marrow using Ficoll hypaque and then T-cell depleted. T-cell depletion was performed by incubating the mononucleated bone marrow cells in α-MEM at a concentration of 2×10^7 cells/mL with 10% absor FBS and 10% (v/v) sheep red blood cells for 4 to 16 h. Absor FBS was prepared beforehand by heating FBS at 56° C. for 1 h, incubating with sheep red blood cells at 0.5% (v/v) for 1 h and then filtering the FBS with a […]. The T-cell depleted, mononucleated cells were recovered using Ficoll hypaque and were maintained in α-MEM supplemented with 20% FBS and 10% 5637 ? nditioned media. 5637 conditioned media ? s previously harvested from confluent 5637 cells after a 3 day incubation. Normal bone marrow from bone marrow transplant donor was collected following informed consent according to institutional guidelines.
Approximately 20 mg of each compound was dissolved in 5 mL of ACS grade acetone (Sigma) using a 5 mL volumetric flask. Stock solutions of the compounds were stored in the dark at −20° C. Compounds were diluted prior to each experiment.
as §1
Adherent cells were seeded at 67×10^3 cells/mL in a 96 well plate (Falcon, Mississauga, Ontario) the day prior to exposure to compound. Suspension cells were seeded at 27×10^4 cells/mL in a 96 well plate the day of exposure to compound. Mononucleated, T-cell depleted normal bone marrow cells were seeded at 67×10^4 cells/mL in a 96 well plate the day of exposure to compound. Compounds and solvent control were added to cells and assayed in triplicate or sextuplet. […]

Row | Compound | IC50 [µM]
7 | CSSCS(=O)(=O)c1ccc(C)cc1 [Compound C, α-p-toluenesulfonyl dimethyl disulphide] | 13

same assay, conditions: Homo sapiens, 48 h, read-out: MTT50

Row | Compound | IC50 [µM]
8 | CSCSSC [Compound N, 2,3,5-trithiahexane] | 94.4

same assay, conditions: Homo sapiens; B1; 48 h; read-out: MTT50

Row | Compound | IC50 [µM]
9 | CSSc1ccc([N+](=O)[O-])cc1 [M, methyl p-nitrophenyl disulphide] | 12.7
10 | CS(=O)(=O)CSSc1ccccc1 [E, 5-phenyl-2,4,5-trithiapentane 2,2-dioxide] | 4.3
11 | CCC(=O)OCSSc1ccccc1 [Compound Q, 1-phenyl-1,2-dithiapropyl propionate] | 14.3
12 | CSSCC(=O)c1ccccc1 [Compound P, phenacyl methyl disulphide] | 94.4
